Molecules are shown by their SMILES.

In the first assay the target is Endothelin-1 receptor (Rattus norvegicus) (UniProt P26684). Kind of assay: Ability to inhibit [125I]ET1 binding to vascular smooth muscle (vsm)- A10 cells.
Sequence of Endothelin-1 receptor (Rattus norvegicus) (P26684 whole entry, looked up): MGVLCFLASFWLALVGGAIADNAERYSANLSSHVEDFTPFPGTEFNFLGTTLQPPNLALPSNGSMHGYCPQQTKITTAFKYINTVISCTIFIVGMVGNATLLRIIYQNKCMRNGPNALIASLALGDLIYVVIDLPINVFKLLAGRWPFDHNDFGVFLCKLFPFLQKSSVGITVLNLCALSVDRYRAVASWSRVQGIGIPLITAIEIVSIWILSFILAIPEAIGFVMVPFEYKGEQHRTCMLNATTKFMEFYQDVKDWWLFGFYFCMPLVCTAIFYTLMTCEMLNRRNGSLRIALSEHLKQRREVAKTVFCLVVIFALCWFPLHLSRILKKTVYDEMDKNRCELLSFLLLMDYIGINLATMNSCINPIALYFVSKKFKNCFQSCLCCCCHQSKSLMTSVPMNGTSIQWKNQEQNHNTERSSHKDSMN
As a reminder, the IC50 is the midpoint of a concentration-inhibition curve. The low end stands for inhibition by little substance, the high end for a need for much substance. Regarding `Cc1noc(NS(=O)(=O)c2ccc(NCc3ccccc3)cc2)c1C` [4-Benzylamino-N-(3,4-dimethyl-isoxazol-5-yl)-benzenesulfonamide], the 50% inhibitory concentration (IC50) came to 9.8 µM.

Molecule `Cc1noc(NS(=O)(=O)c2ccc(N(C)C)cc2)c1C` [4-Dimethylamino-N-(3,4-dimethyl-isoxazol-5-yl)-benzenesulfonamide] gave an IC50 of 84 µM. The same measure, in the same setting: then `Cc1cc(NS(=O)(=O)c2ccc(N)cc2)on1` [4-Amino-N-(3-methyl-isoxazol-5-yl)-benzenesulfonamide], with 28 µM. Still for that read-out and setting: under `Cc1noc(NS(=O)(=O)c2cccc3c(CN(C)C)cccc23)c1C` [5-Dimethylaminomethyl-naphthalene-1-sulfonic acid (3,4-dimethyl-isoxazol-5-yl)-amide] stands 2.8 µM.

Take `CCCNc1ccc(S(=O)(=O)Nc2onc(C)c2C)cc1` [N-(3,4-Dimethyl-isoxazol-5-yl)-4-propylamino-benzenesulfonamide]: the IC50 worked out at 27 µM.

As to `Cc1noc(NS(=O)(=O)c2ccc(C#N)cc2)c1C` [4-Cyano-N-(3,4-dimethyl-isoxazol-5-yl)-benzenesulfonamide], the IC50 is greater than 32 µM.

Biological target in another assay: not listed separately
Put plainly: Selectivity for the ET-A receptor over ETB receptor was observed in rat cerebellar membranes.
The term Ki denotes a measure of affinity in units of concentration, obtained from inhibition or displacement. Read a low Ki as higher affinity. With `Cc1noc(NS(=O)(=O)c2cccc3c(N(C)C)cccc23)c1C` [BMS-182874], the Ki is greater than 200 µM.
